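Protocol summary: plate cells (96-well), add compound at 5 concentrations, incubate 48 h, interpolate endpoints linearly. Abbreviation: GI50, concentration required for 50% inhibition of growth.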 Calls of active or inactive are those of the source. No stated cut-off is given here; in the data, active = GI50 up to about 1.1 µM and inactive = higher.

Common to all, as to assay: DTP human tumour cell line panel, 48 h
For experiment [1], the system named is CAKI-1.
The test system of experiment [2] is CCRF-CEM.
Experiment [3] relates to DU-145.
Experiment [4] has as its system HCT-116.
The subject of experiment [5] is HL-60.
Experiment [6] deals with K562.
Experiment [7] relates to LOX IMVI.
The subject of experiment [8] is MCF7.
The test system of experiment [9] is MDA-MB-231.
Experiment [10] concerns MDA-MB-435.
The subject of experiment [11] is Malme-3M.
Experiment [12] concerns NCI-H460.
Experiment [13] deals with PC-3.
Experiment [14] has as its system RPMI-8226.
Experiment [15] deals with SF-268.
The test system of experiment [16] is SF-539.
In experiment [17] the test system is SN12C.
In experiment [18] the test system is T47D.
Experiment [19] relates to IGROV-1.
The test system of experiment [20] is NCI-H522.

As a reminder, the GI50 is the concentration at which growth is held to half of that of the control. For `O=C(C=P(c1ccccc1)(c1ccccc1)c1ccccc1)c1ccc(-c2cccc([N+](=O)[O-])c2)cc1`, the GI50 was 2.74 µM (inactive) in experiment [1]; 2.79 µM (inactive) in experiment [2]; 6.07 µM (inactive) in [3]; 2.21 µM (inactive) in [4]; 2.57 µM (inactive) in experiment [5]; 3.35 µM (inactive) in experiment [6]. The GI50 in experiment [7] is 2.11 µM (inactive); in [8] it was 3.13 µM (inactive); in experiment [9] it was 2.65 µM (inactive); in experiment [10] it was 2.39 µM (inactive); in experiment [11] it was 3.48 µM (inactive); in experiment [12], 1.91 µM (inactive). Moreover, the GI50 in [13] is 3.57 µM (inactive); in experiment [14], 1.87 µM (inactive); in experiment [15] it was 4.65 µM (inactive); in [16] it was 4.46 µM (inactive); in experiment [17], 3.13 µM (inactive); in experiment [18], 3.85 µM (inactive).
As for `COC(=O)C#CC1(O)C=CC(=O)C=C1`, the GI50 was 0.209 µM (active) in experiment [1]; 0.106 µM (active) in experiment [2]; 1.38 µM (inactive) in experiment [3]; 0.256 µM (active) in experiment [4]; 0.508 µM (active) in experiment [19]; 0.392 µM (active) in [6]. The 50% growth inhibitory concentration (GI50) in [7] is 0.275 µM (active); in [8], 0.352 µM (active); in [9], 2 µM (inactive); in [10], 0.436 µM (active); in experiment [11] it was 2 µM (inactive); in experiment [12] it was 2.71 µM (inactive). Further, the GI50 in experiment [20] is 0.175 µM (active); in experiment [13], 1.29 µM (inactive); in [14], 0.687 µM (active); in experiment [15], 0.664 µM (active); in [16] it was 1.12 µM (active); in [17], 0.789 µM (active). Further, the GI50 in [18] was 0.583 µM (active).
In the case of `COP(C)(=O)C(Cc1c[nH]c2ccccc12)NC(=O)OCc1ccccc1` (stereo not drawn), the GI50 in experiment [1], in experiment [2], in [3], in experiment [4], in [5] and in [19] was > 100 µM (inactive) each time. Moreover, the GI50 in experiment [6], in [7], in experiment [8], in experiment [9], in [10] and in experiment [11] was > 100 µM (inactive) throughout. Besides, the GI50 in experiment [12], in experiment [13], in experiment [14], in experiment [15], in [16] and in experiment [17] was > 100 µM (inactive) throughout. In addition, the GI50 in [18] is > 100 µM (inactive).
As for `O=C(NCCC(F)(F)C(F)(F)C(F)(F)C(F)(F)F)NC1OC(CO)C(O)C(O)C1O` (stereo not drawn), the GI50 in experiment [1], in experiment [2], in [3], in [4], in experiment [5] and in experiment [19] was > 100 µM (inactive) each time. Moreover, the GI50 in experiment [6], in experiment [7], in experiment [8], in experiment [9], in [10] and in experiment [11] was > 100 µM (inactive) in each case. In addition, the GI50 in experiment [12], in experiment [13], in experiment [14], in experiment [15], in [16] and in experiment [17] was > 100 µM (inactive) throughout. Moreover, the GI50 in experiment [18] is > 100 µM (inactive).
Take `C=CCC1C(=O)Nc2cccc3ncn(c23)C1=O` (stereo not drawn): the GI50 in experiment [1], in experiment [2], in [3], in experiment [4], in [5] and in experiment [19] was > 100 µM (inactive) throughout. The GI50 in experiment [6], in experiment [8], in experiment [9], in experiment [10], in [11] and in [12] was > 100 µM (inactive) each time. The GI50 in experiment [13], in experiment [14], in [15], in [16], in [17] and in experiment [18] was > 100 µM (inactive) throughout.
Consider `CCCCCCCCCCOc1ccc(/N=N/c2nnc(-c3ccc(OCCCCC)cc3)s2)cc1`, for which the GI50 in [1], in experiment [2], in experiment [3], in experiment [4], in experiment [19] and in experiment [6] was > 100 µM (inactive) each time. The GI50 in experiment [7] was > 100 µM (inactive); in experiment [8] it was 39.2 µM (inactive); in [9] it was > 100 µM (inactive); in experiment [10] it was 34.5 µM (inactive); in experiment [11], > 100 µM (inactive); in experiment [12] it was > 100 µM (inactive). Further, the GI50 in [20], in experiment [13], in experiment [14], in experiment [15], in [16] and in experiment [17] was > 100 µM (inactive) throughout. Also, the GI50 in experiment [18] was > 100 µM (inactive).
For the compound `C=C1CN(C2=NCCO2)C1`, the GI50 in experiment [1], in experiment [2], in experiment [3], in experiment [4], in experiment [5] and in experiment [19] was > 100 µM (inactive) each time. Further, the GI50 in experiment [6], in experiment [7], in [8], in [9], in [10] and in [11] was > 100 µM (inactive) each time. For the same compound, the GI50 in [12], in experiment [13], in experiment [14], in experiment [15], in [16] and in experiment [17] was > 100 µM (inactive) throughout. The GI50 in experiment [18] is > 100 µM (inactive).
Consider `CC(=O)NC1C(OCc2ccccc2)OC(CO)C(O)C1OCC(=O)N[C@@H](C)C(=O)N[C@H](CCC(=O)NCCCCNc1c2ccccc2nc2cccc([N+](=O)[O-])c12)C(N)=O` (stereo partly drawn), for which the GI50 was 1.49 µM (inactive) in [1]; 4.11 µM (inactive) in experiment [2]; 1.91 µM (inactive) in [3]; 0.637 µM (active) in experiment [4]; 0.804 µM (active) in [19]; 1.13 µM (inactive) in [6]. Further, the GI50 in experiment [7] was 2.39 µM (inactive); in [8], 0.771 µM (active); in experiment [9] it was 2.5 µM (inactive); in experiment [10], 1.62 µM (inactive); in experiment [11], 1.34 µM (inactive); in [12] it was 0.48 µM (active). The GI50 in experiment [20] was 0.134 µM (active); in experiment [13], 1.24 µM (inactive); in experiment [14], 1.64 µM (inactive); in experiment [15], 2.58 µM (inactive); in [16] it was 0.731 µM (active); in [17], 2.25 µM (inactive). Moreover, the GI50 in experiment [18] is 1.61 µM (inactive).
As to `CNc1nc2n(CCO)c(-c3ccccc3)c(-c3ccccc3)nc-2c(=O)n1`, the GI50 in experiment [1], in experiment [2], in [3], in [4], in [19] and in experiment [6] was > 50 µM (inactive) each time. Besides, the GI50 in [7], in experiment [8], in experiment [9], in [10], in [11] and in experiment [12] was > 50 µM (inactive) in each case. Moreover, the GI50 in [20], in [13], in experiment [14], in experiment [15], in [16] and in experiment [17] was > 50 µM (inactive) in each case. Also, in experiment [18], the GI50 is > 50 µM (inactive).
In the case of `O=[N+]([O-])c1ccc(NN=C2c3ccccc3Cc3ccccc32)c([N+](=O)[O-])c1`, the GI50 in experiment [1] is 9.51 µM (inactive); in experiment [2], 3.1 µM (inactive); in [3] it was > 30.4 µM (inactive); in experiment [4], 5.37 µM (inactive); in experiment [19], 4.97 µM (inactive); in experiment [6], 4.32 µM (inactive). The GI50 was 7.87 µM (inactive) in experiment [7]; 4.23 µM (inactive) in experiment [8]; 24.4 µM (inactive) in [9]; 1.79 µM (inactive) in experiment [10]; 3.39 µM (inactive) in experiment [11]; 3.91 µM (inactive) in experiment [12]. For the same compound, the GI50 in experiment [20] is 2.13 µM (inactive); in experiment [13], 4.95 µM (inactive); in experiment [14], 8.91 µM (inactive); in [15] it was 14.3 µM (inactive); in experiment [16], 8.79 µM (inactive); in experiment [17] it was > 67.5 µM (inactive). In addition, the GI50 in [18] was 35.8 µM (inactive).

For the origin of these results see ChEMBL document CHEMBL1201862, “PubChem BioAssay data set” (2004).
